Measured values: patent US6967196B1, “Sulfonamide compounds and uses thereof” (Bristol-Myers Squibb Company, priority 1999, dated 2005)
pIC50: −log10 of the molar value. Structures can show the parent of a compound that is named as a salt. Where two headings read alike, the source gives them in different places. Blank lines part the entries; values can stand above or below the compound they belong to.

Test system: amyloid β production in transfected H4 (human neuroglioma) cells stably expressing APP constructs
Assay: In vitro cell-based assay of inhibitors of amyloid β production (ELISA)
Details: amyloid β in medium by ELISA
Method in brief: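 Aβ secreted into the medium was determined by a two-antibody ELISA specific for the Aβ C-terminus, calibrated with known Aβ amounts. Before that, compounds (10-100 μM initially) were left on the cells for roughly 16 hours.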

[1] = transfected H4 cells stably expressing APP constructs, approximately 16 hours incubation, read-out: ACTIVITY (IC50, inhibition of amyloid β production)
[2] = Homo sapiens, 16 h, transfected H4 cells stably expressing APP, approximately 16 hours incubation, read-out: ACTIVITY (IC50, inhibition of amyloid β production)
[3] = Homo sapiens, 16 h, transfected H4 cells stably expressing APP, approximately 16 hours incubation, Table B, read-out: ACTIVITY (IC50, inhibition of amyloid β production)
[4] = Table B, transfected H4 cells stably expressing APP, approximately 16 hours incubation, read-out: ACTIVITY (inhibitory concentration IC50, inhibition of amyloid β production)
[5] = transfected H4 cells stably expressing APP, approximately 16 hours incubation, read-out: ACTIVITY (IC50, inhibition of amyloid β production)
[6] = Homo sapiens, 16 h, transfected H4 cells stably expressing APP constructs, approximately 16 hours incubation, read-out: ACTIVITY (IC50, inhibition of amyloid β production)
[7] = transfected H4 cells stably expressing APP, approximately 16 hours incubation, Table B, read-out: ACTIVITY (IC50, inhibition of amyloid β production)
[8] = transfected H4 cells stably expressing APP, approx. 16 h incubation, read-out: ACTIVITY (IC50, inhibition of amyloid β production)

Compound: 4-chloro-N-(2,5-dichlorophenyl)-N-[5-[[2-[(methylsulfonyl)-1-piperidinyl]-1(R)-methylpentyl]benzenesulfonamide [Example 1116]
pIC50 [1]: 7.30 to 7.60

Compound: CCSCC[C@@H](C)N(c1cc(Cl)ccc1Cl)S(=O)(=O)c1ccc(Cl)cc1 [Example 1189, 4-chloro-N-[2,5-dichlorophenyl]-N-[1(R)-methyl-(3-ethylthio)propyl]benzenesulfonamide]
pIC50 [1]: 6.30 to 7.00

pIC50 [2]: < 6.30
Compound: O=S(=O)(c1ccc(Cl)cc1)N(Cc1cccnc1)Cc1ccccc1OCCCN1CCCCC1 [Example 945, 4-chloro-N-{2-[3-(1-piperidinyl)propoxy]benzyl}-N-(3-pyridinylmethyl)benzenesulfonamide hydrochloride]

pIC50 [3]: 7.00 to 7.30
Compound: C[C@H](c1ccccc1CCC(=O)NCc1ccco1)N(c1cc(F)ccc1F)S(=O)(=O)c1ccc(Cl)cc1 [Example 404, 3-[2-((1R)-1-{[(4-chlorophenyl)sulfonyl]-2,5-difluoroanilino}ethyl)phenyl]-N-(2-furylmethyl)propanamide]

pIC50 [2]: 6.30 to 7.00
Compound: C[C@H](c1ccccc1OCCCN)N(c1cc(F)ccc1F)S(=O)(=O)c1cccc(Cl)c1 [Example 836, N-{(1R)-1-[2-(3-aminopropoxy)phenyl}ethyl}-3-chloro-N-(2,5-difluorophenyl)benzenesulfonamide]

pIC50 [2]: < 6.30
Compound: O=C(c1ccc(F)cc1)N1CCCCC1CCOc1ccccc1CN(c1cc(F)ccc1F)S(=O)(=O)c1ccc(Cl)cc1 (stereo not drawn) [Example 946, 4-chloro-N-(2,5-difluorophenyl)-N-(2-{2-[1-(4-fluorobenzoyl)-2-piperidinyl]ethoxy}benzyl)benzenesulfonamide]

pIC50 [4]: ≥ 7.60
Compound: CS(=O)(=O)C[C@H]1CCCN1 [Example 68]

pIC50 [2]: 6.30 to 7.00
Compound: C=Cc1ccccc1[C@@H](C)N(c1cc(F)ccc1F)S(=O)(=O)c1ccc(Cl)cc1 [Example 874, 4-chloro-N-(2,5-difluorophenyl)-N-[(1R)-1-(2-vinylphenyl)ethyl]benzenesulfonamide]

Compound: O=S1(=O)CCN(CCCOc2ccccc2CN(c2ccccc2)S(=O)(=O)c2ccc(Cl)cc2)CC1 [Example 313, 4-Chloro-N-{2-[3-(1,1-dioxido-4-thiomorpholinyl)propoxy]benzyl}-N-phenylbenzenesulfonamide Hydrochloride]
pIC50 (transfected H4 cells stably expressing APP, approximately 16 hours incubation, Table B, Hydrochloride, read-out: ACTIVITY (IC50, inhibition of amyloid β production)): 7.00 to 7.30

pIC50 [3]: 7.00 to 7.30
Compound: C[C@H](c1ccccc1Cn1ccnc1)N(c1cc(F)ccc1F)S(=O)(=O)c1ccc(Cl)cc1 [Example 438, 4-chloro-N-(2,5-difluorophenyl)-N-{(1R)-1-[2-(1H-imidazol-1-ylmethyl)phenyl]ethyl}benzenesulfonamide hydrochloride]

pIC50 [5]: < 6.30
Compound: N-{3-[2-(1-{[(4-chlorophenyl)sulfonyl]-2,5-difluoroanilino}ethyl)phenoxy]propyl}-N-methyl-3,5-bis(trifluoromethyl)benzamide [Example 934]

pIC50 [6]: < 5.00
Compound: O=S(=O)(c1ccc(Sc2ccccc2)cc1)N(Cc1ccccc1OCCCSc1ccccc1)c1cc(F)ccc1F [Example 1095, N-(2,5-difluorophenyl)-4-(phenylsulfanyl)-N-{2-[3-(phenylsulfanyl)propoxy]benzyl}benzenesulfonamide]

pIC50 [7]: 6.30 to 7.00
Compound: COC(=O)[C@H](CSCCCc1cc(F)ccc1[C@@H](C)N(c1cc(F)ccc1F)S(=O)(=O)c1ccc(Cl)cc1)NC(=O)OC(C)(C)C [Example 485]

pIC50 [1]: < 5.00
Compound: CCOC(=O)CCCc1ccccc1CN(c1ccccc1)S(=O)(=O)c1ccccc1[N+](=O)[O-] [Example 1096, ethyl 4-[2-({[(2-ntrophenyl)sulfonyl]anilino}methyl)phenyl]butanoate]

pIC50 [6]: 7.30 to 7.60
Compound: C[C@H](CCN1CCSC1C(=O)O)N(c1cc(Cl)ccc1Cl)S(=O)(=O)c1ccc(Cl)cc1 (stereo partly drawn) [Example 1111, 4-chloro-N-(2,5-dichlorophenyl)-N-[3-(2-carboxy-3-thiazolidinyl)-1(R)-methylpropyl]benzenesulfonamide]

pIC50 [5]: < 6.30
Compound: ethyl 3-(2-{[(phenylsulfonyl)anilino]methyl}phenyl)propanoate [Example 995]

pIC50 [1]: 7.30 to 7.60
Compound: CC[C@H](CSCC(=O)O)N(c1cc(Cl)ccc1Cl)S(=O)(=O)c1ccc(Cl)cc1 [Example 1186, (5R)-5-[(2,5-dichlorophenyl)-[(4-chlorophenyl)sulfonyl]-amino]-3-thioheptanoic acid]

pIC50 [4]: ≥ 7.60
Compound: CC(=O)OCc1ccc(Cl)cc1N([C@H](C)CCCS(=O)(=O)O)S(=O)(=O)c1ccc(Cl)cc1 [Example 11]

pIC50 [8]: 6.30 to 7.00
Compound: 3-[2-((1R)-1-{[(4-chlorophenyl)sulfonyl]-2,5-difluoroanilino}ethyl)phenyl]propyl phenylcarbamate [Example 730]

Compound: C[C@H](CCCN(CCCn1ccnc1)CC1CC1)N(c1cc(Cl)ccc1Cl)S(=O)(=O)c1ccc(Cl)cc1 [Example 1135]
pIC50 [1]: 6.30 to 7.00

Compound: C[C@H](CCCS(C)(=O)=O)N(c1cc(Cl)ccc1CO)S(=O)(=O)c1ccc(S(C)(=O)=O)cc1 [Example 1230]
pIC50 [1]: 7.30 to 7.60

pIC50 [2]: 6.30 to 7.00
Compound: O=S(=O)(c1ccc(Cl)cc1)N(Cc1ccccc1OCCSC1CCCCC1)c1cc(F)ccc1F [Example 850, 4-chloro-N-{2-[2-(cyclohexylsulfanyl)ethoxy]benzyl}-N-(2,5-difluorophenyl)benzenesulfonamide]

pIC50 [2]: 6.30 to 7.00
Compound: O=C(c1ccc(-c2ccccc2)cc1)N1CCCCC1CCOc1ccccc1CN(c1cc(F)ccc1F)S(=O)(=O)c1ccc(Cl)cc1 (stereo not drawn) [Example 845, N-(2-{2-[1-([1,1′-biphenyl]-4-ylcarbonyl)-2-piperidinyl]ethoxy}benzyl)-4-chloro-N-(2,5-difluorophenyl)benzenesulfonamide]

Compound: CCNC(=O)N(C)CCOc1ccccc1C(C)N(c1cc(F)ccc1F)S(=O)(=O)c1ccc(Cl)cc1 (stereo not drawn) [Example 801, 4-chloro-N-(2,5-difluorophenyl)-N-[1-(2-{3-[[(ethylamino)carbonyl](methyl)amino]ethoxy}phenyl)ethyl]benzenesulfonamide]
pIC50 [8]: 6.30 to 7.00

pIC50 [2]: < 6.30
Compound: O=S(=O)(c1ccc(Cl)cc1)N(CCc1ccccc1OCCCN1CCCCC1)c1ccccc1 [Example 972, 4-chloro-N-phenyl-N-(2-{2-[3-(1-piperidinyl)propoxy]phenyl}ethyl)benzenesulfonamide hydrochloride]

pIC50 (transfected H4 cells stably expressing APP, approximately 16 hours incubation, hydrochloride, read-out: ACTIVITY (IC50, inhibition of amyloid β production)): 6.30 to 7.00
Compound: C[C@@H](c1ccccc1OCCCn1ccnc1)N(c1cc(F)ccc1F)S(=O)(=O)c1ccc(Cl)cc1 [Example 861, 4-chloro-N-(2,5-difluorophenyl)-N-((1S)-1-{2-[3-(1H-imidazol-1-yl)propoxy]phenyl}ethyl)benzenesulfonamide hydrochloride]

pIC50 (Homo sapiens, 16 h, transfected H4 cells expressing APP, approximately 16 hours incubation, read-out: ACTIVITY (IC50, inhibition of amyloid β production)): 6.30 to 7.00
Compound: C[C@H](C(=O)NCc1ccncc1)N(c1cc(Cl)ccc1F)S(=O)(=O)c1ccc(Cl)cc1 [Example 1313]

pIC50 [7]: 6.30 to 7.00
Compound: N-{2-[2-(1-{[(4-chlorophenyl)sulfonyl]-2,5-difluoroanilino}ethyl)phenoxy]ethyl}-N-ethylpropanamide [Example 504]

Compound: CC(C)CSCCC[C@@H](C)N(c1cc(Cl)ccc1Cl)S(=O)(=O)c1ccc(Cl)cc1 [Example 1188]
pIC50 [1]: 6.30 to 7.00

Compound: CCSCCC[C@@H](C)N(c1cc(Cl)ccc1CO)S(=O)(=O)c1ccc(SCC)cc1 [Example 1232, 4-ethylthio-N-[5-chloro-2-(hydroxymethyl)phenyl]-N-[1(R)-methyl-(4-ethylthio)butyl]benzenesulfonamide]
pIC50 [1]: < 6.30

pIC50 [6]: < 6.30
Compound: COS(=O)(=O)CCC[C@@H](C)N(c1cc(Cl)ccc1Cl)S(=O)(=O)c1ccc(Cl)cc1 [Example 1195, methyl(4R)-4-[N-[2,5-dichlorophenyl][(4-chlorophenyl)sulfonyl]amino]pentylsulfonate]

pIC50 [2]: < 6.30
Compound: O=S(=O)(c1ccc(Cl)cc1)N(Cc1ccccc1OCCCSc1ccccc1)c1cc(F)ccc1F [Example 982, 4-chloro-N-(2,5-difluorophenyl)-N-{2-[3-(phenylsulfanyl)propoxy]benzyl}benzenesulfonamide]

pIC50 [8]: 6.30 to 7.00
Compound: N-{2-[2-(1-{[(4-chlorophenyl)sulfonyl]-2,5-difluoroanilino}ethyl)phenoxy]ethyl}-N-ethylcyclopentanecarboxamide [Example 721]

Compound: CC([C@@H]1CCCN1)N(c1cc(Cl)ccc1Cl)S(=O)(=O)c1ccc(Cl)cc1 (stereo partly drawn) [Example 1254]
pIC50 [1]: < 6.30

pIC50 [2]: < 6.30
Compound: C[C@H](c1ccccc1OCCCN1CCCCC1)N(c1cc(Cl)ccc1CO)S(=O)(=O)c1ccc(Cl)cc1 [Example 1062, 4-chloro-N-[5-chloro-2-(hydroxymethyl)phenyl]-N-((1R)-1-{2-[3-(1-piperidinyl)propoxy]phenyl}ethyl)benzenesulfonamide hydrochloride]

pIC50 [5]: < 6.30
Compound: N-{3-[2-({[(4-chlorophenyl)sulfonyl]-2,5-difluoroanilino}methyl)phenoxy]propyl}-N,4-dimethylbenzamide [Example 893]
